Data set [1] addresses T1, ALK (Homo sapiens, UniProt Q9UM73). Nature of the data set: ALK autophosphorylation enzyme assay. Type of data set: biochemical.
Target sequence in this assay (Q9UM73 19-1620): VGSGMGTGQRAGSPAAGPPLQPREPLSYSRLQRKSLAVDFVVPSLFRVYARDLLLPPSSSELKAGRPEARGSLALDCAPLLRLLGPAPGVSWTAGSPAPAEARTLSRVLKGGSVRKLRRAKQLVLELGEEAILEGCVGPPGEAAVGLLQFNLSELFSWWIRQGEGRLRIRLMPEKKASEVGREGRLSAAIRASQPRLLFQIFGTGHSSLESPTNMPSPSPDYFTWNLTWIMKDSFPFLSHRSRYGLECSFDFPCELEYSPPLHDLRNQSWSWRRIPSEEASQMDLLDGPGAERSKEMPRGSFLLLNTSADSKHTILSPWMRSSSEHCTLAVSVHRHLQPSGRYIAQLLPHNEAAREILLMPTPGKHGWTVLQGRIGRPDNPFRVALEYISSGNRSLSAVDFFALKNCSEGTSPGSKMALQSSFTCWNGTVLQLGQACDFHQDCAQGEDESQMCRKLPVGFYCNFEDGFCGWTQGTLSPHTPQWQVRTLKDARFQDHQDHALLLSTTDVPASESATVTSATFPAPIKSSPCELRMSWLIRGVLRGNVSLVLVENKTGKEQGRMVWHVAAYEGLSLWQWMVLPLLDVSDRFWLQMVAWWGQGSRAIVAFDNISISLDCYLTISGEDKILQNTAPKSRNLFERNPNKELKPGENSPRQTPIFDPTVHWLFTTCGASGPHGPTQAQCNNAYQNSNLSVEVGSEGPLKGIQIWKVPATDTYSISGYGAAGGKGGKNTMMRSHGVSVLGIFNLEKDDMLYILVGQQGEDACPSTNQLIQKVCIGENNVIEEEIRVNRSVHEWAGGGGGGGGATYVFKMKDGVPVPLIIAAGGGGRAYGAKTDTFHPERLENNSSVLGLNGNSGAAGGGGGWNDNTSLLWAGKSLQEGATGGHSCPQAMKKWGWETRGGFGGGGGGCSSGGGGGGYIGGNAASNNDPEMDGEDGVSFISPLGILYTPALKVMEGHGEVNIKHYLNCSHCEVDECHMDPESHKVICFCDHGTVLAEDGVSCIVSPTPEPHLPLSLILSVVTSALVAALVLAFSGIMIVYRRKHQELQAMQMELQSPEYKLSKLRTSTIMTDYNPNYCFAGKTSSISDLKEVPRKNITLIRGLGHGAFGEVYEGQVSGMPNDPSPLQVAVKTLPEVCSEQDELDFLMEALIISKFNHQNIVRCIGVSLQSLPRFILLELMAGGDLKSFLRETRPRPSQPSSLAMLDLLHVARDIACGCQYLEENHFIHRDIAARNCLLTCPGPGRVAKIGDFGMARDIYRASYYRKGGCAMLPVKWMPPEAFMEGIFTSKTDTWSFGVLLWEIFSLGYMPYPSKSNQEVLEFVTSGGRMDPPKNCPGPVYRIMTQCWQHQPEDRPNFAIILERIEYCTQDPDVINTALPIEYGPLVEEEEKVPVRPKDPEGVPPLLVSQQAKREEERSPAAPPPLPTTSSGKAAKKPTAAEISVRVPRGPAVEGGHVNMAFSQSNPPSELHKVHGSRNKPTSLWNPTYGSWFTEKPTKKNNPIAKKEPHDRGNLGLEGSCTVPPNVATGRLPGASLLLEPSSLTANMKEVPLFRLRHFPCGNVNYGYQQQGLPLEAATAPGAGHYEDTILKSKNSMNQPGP
In data set [2] the target is T1, ALK. The data set can be described thus: ALK autophosphorylation cellular assay. Type of data set: cell-based. The note with it: read-out: ALK Cell IC50.
Target sequence in this assay (Q9UM73 with tags, fused parts or gaps): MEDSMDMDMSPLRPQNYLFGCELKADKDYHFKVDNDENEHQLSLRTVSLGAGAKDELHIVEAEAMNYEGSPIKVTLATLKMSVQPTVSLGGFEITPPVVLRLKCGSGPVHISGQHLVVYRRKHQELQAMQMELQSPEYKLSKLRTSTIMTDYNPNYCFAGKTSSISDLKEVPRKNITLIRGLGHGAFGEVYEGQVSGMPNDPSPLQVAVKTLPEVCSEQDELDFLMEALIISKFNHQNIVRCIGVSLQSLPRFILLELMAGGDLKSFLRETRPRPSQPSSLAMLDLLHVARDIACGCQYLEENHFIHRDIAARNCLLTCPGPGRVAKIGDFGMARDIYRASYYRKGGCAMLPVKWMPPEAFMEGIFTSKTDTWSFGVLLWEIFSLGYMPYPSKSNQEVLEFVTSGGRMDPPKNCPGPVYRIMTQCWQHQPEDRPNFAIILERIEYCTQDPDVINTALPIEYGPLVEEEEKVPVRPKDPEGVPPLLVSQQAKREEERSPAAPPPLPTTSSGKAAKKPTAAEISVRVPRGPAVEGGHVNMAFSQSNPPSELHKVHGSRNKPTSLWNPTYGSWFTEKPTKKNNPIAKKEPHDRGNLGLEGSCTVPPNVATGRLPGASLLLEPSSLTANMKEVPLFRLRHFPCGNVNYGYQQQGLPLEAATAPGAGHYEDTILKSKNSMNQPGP
Data set [3] in a line: Rat pharmacokinetic (PK) studies.
Data set [4] in a line: PK/PD study: compound levels in plasma and tumor lysates (LC/MS-MS). The note with it: Scid mice, single p.o. 30 mg/kg, 6 h and 16 h post dose. Type of data set: in vivo. The source says:
Exponentially growing cells were implanted subcutaneously to the left flank of each mouse. The mice were monitored and when the tumor xenograft volumes reached approximately 300 to 500 mm3, mice received a single oral administration of either vehicle PEG-400 or the compound of interest (e.g., Examples 14, 16, 16a, and/or 16b) formulated in vehicle. At indicated time points postdosing, the mice were sacrificed, the blood was collected and centrifuged, and the plasma was collected. The tumors were excised and disrupted with a hand-held tissue blender in completed FRAK lysis buffer without Triton X-100. After brief sonication, the lysates were cleared by centrifugation, mixed with sample buffer, and subjected to SDS-PAGE for ALK immunoblotting as described above. The individual bands of phospho- and total NPM-ALK were scanned and quantified with the Gel Pro Analyzer software (Media Cybernetics, Inc.). The relative NPM-ALK tyrosine phosphorylation (phospho-NPMALK/NPM-ALK ratio) of each sample at indicated time points was then calculated, with the average value of vehicle-treated sample(s) as 100. The compound levels in plasma and tumor lysates were measured by liquid chromatography/tandem mass spectrometry (LC/MS-MS).

A further data set concerns Sup-M2 ALCL xenografts. Type of data set: in vivo. The note with it: Scid mice, p.o., 10 days; for anti-tumor efficacy (tumor regression): Sup-M2 xenografts.
[5] abbreviates: Sprague-Dawley rat, i.v., 1 mg/kg.
The mark [6] stands for this setting: Sprague-Dawley rat, p.o., 5 mg/kg.
The mark [7] stands for this setting: Sprague-Dawley, rat, in vivo, po, 5 mg/kg.
Where [8] appears, read: Sprague-Dawley, rat, in vivo, iv, 1 mg/kg.

Structures are written as SMILES. Where two headings read alike, the source gives them in different places.

A word on the IC50: it is the concentration needed to halve the response being measured. In general, Vd refers to the apparent volume that relates the amount in the body to the concentration in plasma or blood. The low end stands for little distribution into tissue, the high end for wide distribution into tissue. A word on the Cmax: it is the maximum level reached in the sampled fluid or tissue. The Tmax is the time at which the peak concentration occurs. The term AUC(0-inf) denotes the area under the concentration-time curve extrapolated to infinity. A low value points to low exposure. A word on the clearance: it is a measure of how efficiently the substance is removed, as volume per time. A low value points to inefficient removal. The term half-life denotes the time needed for the level to fall by half in the phase considered. A low value points to rapid decline. As a reminder, the bioavailability is the share of a dose that reaches the circulation, judged against a reference dose that is usually intravenous.

Protocol for Sup-M2 ALCL xenografts: The length (L) and width (W) of each tumor was measured with a Vernier caliper and the mouse body weight was determined every 2 to 3 days. […] Statistical analyses of tumor volumes and mouse body weight were carried out using the Mann-Whitney rank sum test. Plasma and tumor samples were obtained at 2 hours post-final dose, and the compound levels in plasma and tumor lysates were measured by LC/MS-MS.

For the compound `COCCN1CC[C@@H](c2ccc(Nc3ncc4ccc(-c5ccccc5OC)n4n3)c(OC)c2)[C@@H](O)C1` (racemic) [Example 1, (±)-3,4-cis-1-(2-Methoxy-ethyl)-4-{3-methoxy-4-[7-(2-methoxy-phenyl)-pyrrolo[2,1-f][1,2,4]triazin-2-ylamino]-phenyl}-piperidin-3-ol], the concentration for half-maximal inhibition (IC50) was 3.33 nM at ALK [1] and 50 nM on ALK [2].
With `COc1cc([C@@H]2CCNC[C@@H]2O)ccc1Nc1ncc2ccc(-c3cccnc3OC)n2n1` (racemic) [Example 4, (±)-3,4-cis-4-{3-Methoxy-4-[7-(2-methoxy-pyridin-3-yl)-pyrrolo[2,1-f][1,2,4]triazin-2-ylamino]-phenyl}-piperidin-3-ol], the IC50 on ALK [1] was found to be 14 nM.
In turn, `COc1cc([C@@H]2CCNC[C@H]2F)ccc1Nc1ncc2ccc(-c3ccccc3OC)n2n1` (racemic) [Example 5, (±)-[4-(3,4-trans-3-Fluoro-piperidin-4-yl)-2-methoxy-phenyl]-[7-(2-methoxy-phenyl)-pyrrolo[2,1-f][1,2,4]triazin-2-yl]-amine] showed an IC50 against ALK [1] of 5.66 nM.
The same measure, in the same setting: with `COc1cc(C2CCN(CCO)CC2(F)F)ccc1Nc1ncc2ccc(-c3ccccc3OC)n2n1` (racemic) [Example 9, (±)-2-(3,3-Difluoro-4-{3-methoxy-4-[7-(2-methoxy-phenyl)-pyrrolo[2,1-f][1,2,4]triazin-2-ylamino]-phenyl}-piperidin-1-yl)-ethanol] the figure was 28.2 nM; with `COc1cc([C@@H]2CCN(CC(C)(C)O)C[C@H]2F)ccc1Nc1ncc2ccc(-c3cccnc3OC)n2n1` (racemic) [Example 10, (±)-1-(3,4-trans-3-Fluoro-4-{3-methoxy-4-[7-(2-methoxy-pyridin-3-yl)-pyrrolo[2,1-f][1,2,4]triazin-2-ylamino]-phenyl}-piperidin-1-yl)-2-methyl-propan-2-ol], 25.2 nM.
Turning to `COc1cc(C2CCN(CCO)CC2(F)F)ccc1Nc1ncc2ccc(-c3cccnc3OC)n2n1` (racemic) [Example 11, (±)-2-(3,3-Difluoro-4-{3-methoxy-4-[7-(2-methoxy-pyridin-3-yl)-pyrrolo[2,1-f][1,2,4]triazin-2-ylamino]-phenyl}-piperidin-1-yl)-ethanol], it took 34 nM to reach half-maximal inhibition against ALK [1] (IC50).
Consider `COc1cc(C2CCNCC2(F)F)ccc1Nc1ncc2ccc(-c3cccnc3OC)n2n1` (racemic) [Example 12, (±)-[4-(3,3-Difluoro-piperidin-4-yl)-2-methoxy-phenyl]-[7-(2-methoxy-pyridin-3-yl)-pyrrolo[2,1-f][1,2,4]triazin-2-yl]-amine], for which the 50% inhibitory concentration (IC50) on ALK [1] amounted to 13.7 nM; at ALK [2], 200 nM.
In the case of `COc1cc([C@@H]2CCN(CCO)C[C@@H]2O)ccc1Nc1ncc2ccc(-c3ccccc3OC)n2n1` (racemic) [Example 14, (±)-3,4-cis-1-(2-Hydroxy-ethyl)-4-{3-methoxy-4-[7-(2-methoxy-phenyl)-pyrrolo[2,1-f][1,2,4]triazin-2-ylamino]-phenyl}-piperidin-3-ol], in data set [3] (setting [5]), the “AUC0-∞” value came to 371 ± 6 ng·h/mL, the CL came out at 46 ± 1 mL/min/kg, the Vd came out at 9.9 ± 2 L/kg and the t1/2 stood at 2.5 ± 0.6 h. In data set [3] (setting [6]), the “AUC0-∞” value is 479 ± 83 ng·h/mL, the Cmax is 85 ± 15 ng/mL and the F % is on record as 26 ± 4%. Besides, the Tmax in data set [3] (setting [7]) came to 6 h. Besides, the “rat PK properties (in words)” value in data set [3] (rat) is on record as “acceptable rat PK properties”.
In data set [3] (setting [8]), `COc1cc([C@@H]2CCN(CCO)C[C@H]2O)ccc1Nc1ncc2ccc(-c3ccccc3OC)n2n1` (racemic) [Example 16, (±)-3,4-trans-1-(2-Hydroxy-ethyl)-4-{3-methoxy-4-[7-(2-methoxy-phenyl)-pyrrolo[2,1-f][1,2,4]triazin-2-ylamino]-phenyl}-piperidin-3-ol] gave an AUC(0-inf) of 459 ± 72 ng·h/mL, a Vd of 10.3 ± 1.3 L/kg, a clearance of 39 ± 7 mL/min/kg and a half-life of 3.2 ± 0.6 h. In data set [3] (setting [7]), the AUC(0-inf) was found to be 708 ± 63 ng·h/mL, the Cmax turned out to be 97 ± 10 ng/mL, the Tmax stood at 4 ± 1.2 h and the bioavailability turned out to be 31 ± 3%. Also, the “rat PK properties (in words)” value in data set [3] (rat) was “acceptable rat PK properties”.
For the compound `COc1cc([C@H]2CCN(CCO)C[C@@H]2O)ccc1Nc1ncc2ccc(-c3ccccc3OC)n2n1` (single isomer, unassigned) [Example 16b], the “plasma and tumor levels, higher than with Example 16a” value in data set [4] is 4-10 fold. In the data set with Sup-M2 ALCL xenografts (30 mg/kg b.i.d.), the “tolerability (body weight loss, overt toxicity)” value is recorded as “well tolerated” and the “anti-tumor efficacy (tumor regression)” value is given as “Complete tumor regressions”. In addition, in the data set with Sup-M2 ALCL xenografts (55 mg/kg b.i.d.), the “tolerability (body weight loss, overt toxicity)” value is reported as “well tolerated” and the “anti-tumor efficacy (tumor regression)” value is recorded as “Complete tumor regressions”.
In the case of `COc1cc(C2CCN(CCO)CC2)ccc1Nc1ncc2ccc(-c3ccccc3OC)n2n1` [Example 18, 2-(4-{3-Methoxy-4-[7-(2-methoxy-phenyl)-pyrrolo[2,1-f][1,2,4]triazin-2-ylamino]-phenyl}-piperidin-1-yl)-ethanol], the figures for the IC50 on ALK [1] and at ALK [2] were 3 nM and 150 nM, respectively.

(Values after patent US9440984B2, “Pyrrolotriazines as ALK inhibitors” (Cephalon, Inc., priority 2013, dated 2016).)
